Target: T1, InvD1L (invertebrate specific D1-like dopamine receptor) (Ixodes scapularis, UniProt A0ACM8DGL0)
T1 sequence (A0ACM8DGL0 1-457): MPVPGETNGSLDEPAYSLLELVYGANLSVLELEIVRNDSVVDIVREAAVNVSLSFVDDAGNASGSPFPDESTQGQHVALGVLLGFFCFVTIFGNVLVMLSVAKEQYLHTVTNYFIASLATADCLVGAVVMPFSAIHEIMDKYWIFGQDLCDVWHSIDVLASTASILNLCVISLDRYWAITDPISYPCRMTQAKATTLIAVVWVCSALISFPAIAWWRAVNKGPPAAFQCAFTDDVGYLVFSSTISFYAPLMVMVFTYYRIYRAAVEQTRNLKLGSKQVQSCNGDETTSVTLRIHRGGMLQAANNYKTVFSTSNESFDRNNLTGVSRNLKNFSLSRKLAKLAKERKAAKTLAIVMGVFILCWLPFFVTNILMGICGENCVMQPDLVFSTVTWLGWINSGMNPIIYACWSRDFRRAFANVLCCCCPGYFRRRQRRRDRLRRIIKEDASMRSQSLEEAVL
Assay: cell-based

- EC50: 1.34 µM
SMILES: NCCc1ccc(O)c(O)c1 [DA, dopamine]
